Laboratory results: patent US20260042764A1, “COMPOSITIONS AND METHODS FOR INHIBITION OF KRAS” (TheRas, Inc., priority 2022, published 2026)

How the values were obtained:
SW620 cells (KRAS G12V) = experiment: Cell-based pERK HTRF assay in SW620 cell (Biological Example 4); settings: Homo sapiens, SW-620, SW620 (KRAS G12V) cells, pERK HTRF
How it was run: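 This assay measures inhibition of ERK phosphorylation downstream of KRAS G12V in intact SW620 cells. Compounds are applied for 4 h over nine half-log concentrations starting at 1 μM, and pERK is quantified by HTRF.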

[1] = molecular target: T1, Avi-KRAS WT (1-169) GppNHp/RAF1 RBD-3xFLAG (52-151) (Homo sapiens, UniProt P01116); experiment: Raf1-KRAS WT-GppNHP disruption HTRF assay (Biological Example 1); assay type: binding
T1 construct: Avi-KRAS WT (1-169)
How it was run: (§1)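 Measured with a KRAS/RAF1 HTRF assay at pH 7.5 in 10% DMSO, with two 1 h room-temperature incubations with shaking.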

[2] = molecular target: T2, Avi-KRAS G12R (1-169) GppNHp/RAF1 RBD-3xFLAG (52-151) (Homo sapiens, UniProt P01116, G12R); experiment: Raf1-KRAS G12R-GppNHP disruption HTRF assay (Biological Example 1); assay type: binding
T2 construct: Avi-KRAS G12R (1-169)
How it was run: as §1

[3] = molecular target: T3, Avi-KRAS G12V (1-169) GppNHp/RAF1 RBD-3xFLAG (52-151) (Homo sapiens, UniProt P01116, G12V); experiment: Raf1-KRAS G12V-GppNHP disruption HTRF assay (Biological Example 1); assay type: binding
T3 construct: Avi-KRAS G12V (1-169)
How it was run: as §1

[4] = molecular target: T4, Avi-KRAS G12D (1-169) GppNHp/RAF1 RBD-3xFLAG (52-151) (Homo sapiens, UniProt P01116, G12D); experiment: Raf1-KRAS G12D-GppNHP disruption HTRF assay (Biological Example 1); assay type: binding
T4 construct: Avi-KRAS G12D (1-169)
How it was run: as §1

GP2d cells (KRAS G12D) = experiment: Cell-based pERK HTRF assay in GP2d cell (Biological Example 2); settings: GP2d, GP2d (KRAS G12D) cells, pERK HTRF
How it was run: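 Phospho-ERK is measured by HTRF following a 60 min compound exposure at 0.25% DMSO, with a 9-point half-log curve topping at 1 μM or 100 nM.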

[5] = KRAS WT, GppNHp-loaded, class symbols
[6] = KRAS G12R, GppNHp-loaded, class symbols
[7] = KRAS G12V, GppNHp-loaded, class symbols
[8] = KRAS G12D, GppNHp-loaded, class symbols

T4 sequence (P01116 1-169 isoform P01116-2 G12D): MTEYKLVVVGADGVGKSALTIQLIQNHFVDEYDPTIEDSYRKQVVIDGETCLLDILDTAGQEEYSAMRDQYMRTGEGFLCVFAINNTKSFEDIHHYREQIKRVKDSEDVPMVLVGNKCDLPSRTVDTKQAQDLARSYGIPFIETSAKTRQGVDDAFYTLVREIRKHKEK
T2 sequence (P01116 1-169 isoform P01116-2 G12R): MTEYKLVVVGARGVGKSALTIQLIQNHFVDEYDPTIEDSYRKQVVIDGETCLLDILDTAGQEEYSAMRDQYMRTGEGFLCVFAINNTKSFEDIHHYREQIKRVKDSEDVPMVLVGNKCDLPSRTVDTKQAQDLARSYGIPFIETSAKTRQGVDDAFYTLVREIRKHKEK
T3 sequence (P01116 1-169 isoform P01116-2 G12V): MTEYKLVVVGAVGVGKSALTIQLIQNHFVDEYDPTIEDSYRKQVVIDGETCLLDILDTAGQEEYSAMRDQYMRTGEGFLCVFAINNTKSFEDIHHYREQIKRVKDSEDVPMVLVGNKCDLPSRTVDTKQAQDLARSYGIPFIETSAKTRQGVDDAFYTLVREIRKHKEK
T1 sequence (P01116 1-169 isoform P01116-2): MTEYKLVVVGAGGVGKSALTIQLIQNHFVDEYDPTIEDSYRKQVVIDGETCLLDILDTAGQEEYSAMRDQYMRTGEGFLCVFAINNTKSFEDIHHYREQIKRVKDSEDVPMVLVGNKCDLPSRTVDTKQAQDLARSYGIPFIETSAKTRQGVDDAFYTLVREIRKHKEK

IC50 (SW620 cells (KRAS G12V)) [nM] | IC50 ([1]; KRAS WT-GppNHp/RAF1 RBD HTRF) [nM] | IC50 ([2]; KRAS G12R-GppNHp/RAF1 RBD HTRF) [nM] | IC50 ([3]; KRAS G12V-GppNHp/RAF1 RBD HTRF) [nM] | IC50 ([4]; KRAS G12D-GppNHp/RAF1 RBD HTRF) [nM] | IC50 (GP2d cells (KRAS G12D)) [nM] | IC50 ([1]; KRAS WT, GppNHp-loaded, Table 11) [nM] | IC50 ([2]; KRAS G12R, GppNHp-loaded, Table 11) [nM] | IC50 ([3]; KRAS G12V, GppNHp-loaded, Table 11) [nM] | IC50 ([4]; KRAS G12D, GppNHp-loaded, Table 11) [nM] | IC50 (SW620 cells (KRAS G12V); class symbols) [nM] | IC50 [1, 5] [nM] | IC50 [2, 6] [nM] | IC50 [3, 7] [nM] | IC50 [4, 8] [nM] | IC50 (GP2d cells (KRAS G12D); class symbols) [nM] | Compound
< 100 | 100 to 1000 | < 100 | < 100 | < 100 | < 100 |  |  |  |  |  |  |  |  |  |  | CCN(c1nc(OC[C@@]23CCCN2C[C@H](F)C3)nc2c(F)c(-c3ccc(F)c4sc(N)c(C#N)c34)c(C(F)(F)F)cc12)[C@H]1CCN(C(=O)C2(F)CC2)C1 (atropisomer, axis not shown) [Compound 559]
 |  |  |  |  |  |  |  |  |  | < 100 | < 100 | < 100 | < 100 | < 100 | < 100 | CCN(c1nc(OC[C@@]23CCCN2C[C@H](F)C3)nc2c(F)c(-c3ccc(F)c4sc(N)c(C#N)c34)c(C(F)(F)F)cc12)[C@H]1CCN(C(=O)OC2CCN(C(C)=O)C2)C1 (stereo partly drawn) [Compound 711]
 |  |  |  |  |  |  |  |  |  | < 100 | < 100 | < 100 | < 100 | < 100 | < 100 | CCN(c1nc(OC[C@@]23CCCN2C[C@H](F)C3)nc2c(F)c(-c3ccc(F)c4sc(N)c(C#N)c34)c(C(F)(F)F)cc12)[C@@H]1CCN(C(=O)[C@@H]2CC2(F)F)[C@@H]1C (atropisomer, axis not shown) [Compound 808]

The next lines start with the compound.

Compound | IC50 (SW620 cells (KRAS G12V)) [nM] | IC50 ([1]; KRAS WT-GppNHp/RAF1 RBD HTRF) [nM] | IC50 ([2]; KRAS G12R-GppNHp/RAF1 RBD HTRF) [nM] | IC50 ([3]; KRAS G12V-GppNHp/RAF1 RBD HTRF) [nM] | IC50 ([4]; KRAS G12D-GppNHp/RAF1 RBD HTRF) [nM] | IC50 (GP2d cells (KRAS G12D)) [nM] | IC50 ([1]; KRAS WT, GppNHp-loaded, Table 11) [nM] | IC50 ([2]; KRAS G12R, GppNHp-loaded, Table 11) [nM] | IC50 ([3]; KRAS G12V, GppNHp-loaded, Table 11) [nM] | IC50 ([4]; KRAS G12D, GppNHp-loaded, Table 11) [nM] | IC50 (SW620 cells (KRAS G12V); class symbols) [nM] | IC50 [1, 5] [nM] | IC50 [2, 6] [nM] | IC50 [3, 7] [nM] | IC50 [4, 8] [nM] | IC50 (GP2d cells (KRAS G12D); class symbols) [nM]
CC(C)C(=O)N1CC[C@](C)(N(C)c2nc(OC[C@@]34CCCN3C[C@H](F)C4)nc3c(F)c(-c4ccc(F)c5sc(N)c(C#N)c45)c(C(F)(F)F)cc23)C1 [Compound 499] | < 100 | 1000 to 10000 | 1000 to 10000 | 1000 to 10000 | 100 to 1000 | < 100 |  |  |  |  |  |  |  |  |  | 
CC(=O)N1C[C@H]2CCN(c3nc(OC[C@@]45CCCN4C[C@H](F)C5)nc4c(F)c(-c5ccc(F)c6sc(N)c(C#N)c56)c(C(F)(F)F)cc34)[C@H]2C1 [Compound 210] | 100 to 1000 |  |  |  |  | < 100 | 100 to 1000 | 1000 to 10000 | 100 to 1000 | 1000 to 10000 |  |  |  |  |  | 
CNC(=O)N1CC[C@@H](N(C)c2nc(OC[C@@]34CCCN3C[C@H](F)C4)nc3c(F)c(-c4ccc(F)c5sc(N)c(C#N)c45)c(C(F)(F)F)cc23)[C@H]1C [Compound 427] | < 100 | 100 to 1000 | 100 to 1000 | 100 to 1000 | 100 to 1000 | < 100 |  |  |  |  |  |  |  |  |  | 
C[C@H]1C[C@H](N(c2nc(OC[C@@]34CCCN3C[C@H](F)C4)nc3c(F)c(-c4ccc(F)c5sc(N)c(C#N)c45)c(C(F)(F)F)cc23)C2CC2)CN1C(=O)C1CC1 [Compound 474] | < 100 | 100 to 1000 | 100 to 1000 | 100 to 1000 | 100 to 1000 | < 100 |  |  |  |  |  |  |  |  |  | 
N#Cc1c(N)sc2c(F)ccc(-c3c(C(F)(F)F)cc4c(N5CCC[C@@H](CO)C5)nc(OC[C@@]56CCCN5C[C@H](F)C6)nc4c3F)c12 [Compound 316] | < 100 | 100 to 1000 | 100 to 1000 | 1000 to 10000 | 100 to 1000 | < 100 |  |  |  |  |  |  |  |  |  | 
N#Cc1c(N)sc2c(F)ccc(-c3c(C(F)(F)F)cc4c(N5CC6COC[C@H]6C5)nc(OC[C@@]56CCCN5C[C@H](F)C6)nc4c3F)c12 (stereo partly drawn) [Compound 293] | < 100 | 100 to 1000 | 100 to 1000 | 1000 to 10000 | 100 to 1000 | < 100 |  |  |  |  |  |  |  |  |  | 
N#Cc1cc2n(n1)CCN(c1nc(OC[C@@]34CCCN3C[C@H](F)C4)nc3c(F)c(-c4ccc(F)c5sc(N)c(C#N)c45)c(C(F)(F)F)cc13)C2 [Compound 393] | < 100 | > 10000 | > 10000 | > 10000 | 1000 to 10000 | < 100 |  |  |  |  |  |  |  |  |  | 
CCN(c1nc(OC[C@@]23CCCN2C[C@H](F)C3)nc2c(F)c(-c3ccc(F)c4sc(N)c(C#N)c34)c(C(F)(F)F)cc12)[C@H]1CCN(C(=O)N2CC3CC(C2)O3)C1 [Compound 651] |  |  |  |  |  |  |  |  |  |  | < 100 | < 100 | < 100 | < 100 | < 100 | < 100
